Measurements as given in PMC7738871, “Covalent modification of Keap1 at Cys77 and Cys434 by pubescenoside a suppresses oxidative stress-induced NLRP3 inflammasome activation in myocardial ischemia-reperfusion injury” (Theranostics, 2021).

Columns and labels:
Keap1 C23S = biological target: T1, Keap1 C23S (Homo sapiens, UniProt Q14145, C23S); experiment: ITC titration of PBA with Keap1-C23S; format: binding; conditions: 25 ℃
T1 construct: His (N); made in house; host or cells: E. coli BL21 (DE3)
T1 sequence (Q14145 whole entry C23S): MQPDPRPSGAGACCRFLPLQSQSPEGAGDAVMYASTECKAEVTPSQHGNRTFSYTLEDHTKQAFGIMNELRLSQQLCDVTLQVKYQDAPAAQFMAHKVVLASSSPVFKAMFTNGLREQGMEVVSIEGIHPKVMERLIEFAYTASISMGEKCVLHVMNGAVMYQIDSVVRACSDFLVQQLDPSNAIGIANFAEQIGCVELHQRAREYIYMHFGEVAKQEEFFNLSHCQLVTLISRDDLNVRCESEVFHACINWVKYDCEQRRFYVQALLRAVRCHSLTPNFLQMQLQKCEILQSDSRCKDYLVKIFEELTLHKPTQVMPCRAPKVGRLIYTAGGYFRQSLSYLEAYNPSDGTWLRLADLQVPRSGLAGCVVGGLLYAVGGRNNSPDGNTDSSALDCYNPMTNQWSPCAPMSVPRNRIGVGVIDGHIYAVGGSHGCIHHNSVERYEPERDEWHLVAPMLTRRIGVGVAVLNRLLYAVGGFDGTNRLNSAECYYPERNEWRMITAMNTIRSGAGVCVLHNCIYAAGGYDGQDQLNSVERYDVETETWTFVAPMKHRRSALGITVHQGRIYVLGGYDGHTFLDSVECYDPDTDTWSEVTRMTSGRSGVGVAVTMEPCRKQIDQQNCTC
Protocol: The Keap1 was amplified by PCR using a human cDNA library, and was subcloned into the vector pET28-TEV, which contained one tobacco etch virus (TEV) protease cleavage site at the upstream multiple cloning site. The protein was expressed in E. coli BL21 (DE3) cells and incubated at 37 °C until the OD600 value reached 0.6, using 0.2 mM isopropyl β-D-1-thiogalactopyranoside (IPTG) overnight induction at 18 °C. The cells were isolated by centrifugation, resuspended in ice-cold lysis buffer and lysed by cryogenic overpressure cell breaker at 1,200 psi. The lysates were centrifuged for 60 min at 14,000 rpm to obtain the supernatant. Gravity flow purification of Keap1 protein was obtained at room temperature using 1 mL of Ni-NTA and eluted in buffer containing 250 mM imidazole, followed by 1 mL of HiTrap QHP for the second step purification. The final protein was purified and validated by Superdex 200 10/300GL resin.
The mutant plasmid DNA was obtained by PCR. The PCR products were cleaved by DpnI restriction enzymes. The restriction endonuclease-cleaved mixture was subsequently transformed into E. coli DH5α. Colonies were evaluated by colony PCR and sequenced. The mutant plasmid was transformed into E. coli BL21 (DE3) after successful sequencing. The steps for expression and purification of all recombinants were described above.
Isothermal calorimetry (ITC) titration experiments were performed at 25 °C. WT Keap1, Keap1 mutants and PBA were dissolved in binding buffer (40 mM Tris-HCl pH 8.0, 250 mM NaCl). In a typical experiment, 60 μL of PBA (1 mM) was injected 19 times at 2-min intervals from a stirring syringe into the sample cell containing 300 μL of WT protein or mutants (30 μM). The first injection was 0.4 μL of PBA, and the subsequent 18 injections were 2 μL each time. The site-binding models were determined by using MicroCal Origin software.

RAW264.7 macrophages = experiment: MTT cytotoxicity, RAW264.7; format: cell-based; conditions: RAW264.7, under 240 μM, 48 h
Protocol: Cell viability was determined by MTT assays. PBA was prepared to a stock solution dissolved in dimethyl sulfoxide (DMSO). RAW264.7, H9c2 cells, primary mouse cardiomyocytes were treated with different doses of PBA, and DMSO only as control for 48 h for the toxicity. In addition, H9c2 cells or primary mouse cardiomyocytes were treated with the indicated doses of PBA, diazoxide as positive control, DMSO only as control, then cultured with or without OGD/R treatment. At the end of the experiments, MTT was added into each well at the concentration of 0.5 mg/ml, and incubated at 37 °C for 4 h. After removal of the supernatant, 150 μL of DMSO was added to solubilize the formazan products. And the solution was measured at the absorbance of 490 nm by a spectrophotometer (Thermo Fisher Scientific, MA, USA). The results of the MTT assay in all groups were normalized to the control group with DMSO only treatment.

[1] = tested on: T2, interaction of Keap1 and Cul3; experiment: Co-IP of Keap1 and Cul3 in 293T cells; format: cell-based, human
T2 construct: expressed in transfected cells; host or cells: 293T
Protocol: Alkylation of the BTB domain of Keap1 by covalent modifiers contributes to the disruption of the Keap1-Cul3 interactions, leading to Nrf2 activation. Next, we investigated the effect of PBA on the modulation of Nrf2 ubiquitination as Nrf2 stability is controlled by ubiquitin-mediated proteasomal degradation. First, 3X Flag-Keap1, Myc-Nrf2 and Ub plasmids were transfected into 293T cells and then, the cells were treated with 30 μM PBA for 20 h and 5 μM MG132 for another 4 h. Cell lysates were pulled down using anti-Myc beads, and immunopurified Nrf2 was examined for the occurrence of Ub by western blotting. […]
Figure 6 PBA suppresses Keap1-mediated ubiquitination of Nrf2 by disrupting the interaction between Cul3 and Keap1. […] The cell lysates were immunoprecipitated using anti-Myc beads, and the ubiquitination level was evaluated using the anti-Ub antibody. […] The cell lysates were immunoprecipitated with the anti-Flag antibody, and the level of Nrf2 was assessed using the anti-Nrf2 antibody. […] The cell lysates were immunoprecipitated with the anti-Flag antibody, and the level of Cul3 was measured using the anti-Cul3 antibody. #p < 0.05, ##p < 0.01, ###p < 0.001, the control vs DMSO; *p < 0.05,**p < 0.01, ***p < 0.001, PBA or tBHQ vs DMSO. […] Cell viability was measured by MTT assays. #p < 0.05, ###p < 0.001, the control vs OGD/R; **p < 0.01, ***p < 0.001, OGD/R+PBA vs OGD/R.

In the case of C=C(COC(=O)C=Cc1ccc(O)c(O)c1)C(O)COC1OC(CO)C(O)C(O)C1O (stereo not shown) [PBA, pubescenoside A], the Kd (Keap1 C23S) is reported as 9.78 µM, the “T△S” value (Keap1 C23S) is reported as 3.22 ± 0.00 kcal/mol and the “△G” value (Keap1 C23S) is reported as -6.84 ± 0.00 kcal/mol. The “△H” value (Keap1 C23S) was -3.62 ± 0.241 kcal/mol, the “cell toxicity (MTT)” value (RAW264.7 macrophages) was “did not exhibit any cell toxicity” and the “disruption of Keap1 and Cul3 interaction in mutant cells” value ([1]; Cys77S and Cys434-Keap1 mutant cells) was “blocked”. The “interaction of Keap1 and Cul3 (Co-IP)” value ([1]; WT-Keap1 293T cells, 30 μM PBA 12 h) was “could disrupt”.
